According to PubChem BioAssay (NCI):
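Cells were grown in 96-well plates and exposed to each compound for 48 hours at five concentrations; endpoints were interpolated linearly between bracketing concentrations, or set to the highest concentration if not reached. TGI: concentration producing complete growth inhibition.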

Experiments:
Assay in all cases: DTP human tumour cell line panel, 48 h
786-0 renal = tested on: 786-0 renal
HOP-62 NSCLC = tested on: HOP-62 NSCLC
MOLT-4 leukemia = tested on: MOLT-4 leukemia
UACC-257 melanoma = tested on: UACC-257 melanoma
K-562 leukemia = tested on: K-562 leukemia
ACHN renal = tested on: ACHN renal
COLO 205 colon = tested on: COLO 205 colon
HCT-116 colon = tested on: HCT-116 colon
IGROV1 ovarian = tested on: IGROV1 ovarian
SK-MEL-2 melanoma = tested on: SK-MEL-2 melanoma
SR leukemia = tested on: SR leukemia
NCI-H460 lung = tested on: NCI-H460 lung
SF-539 CNS = tested on: SF-539 CNS
MDA-MB-435 = tested on: MDA-MB-435
HS 578T breast = tested on: HS 578T breast
KM12 colon = tested on: KM12 colon
SK-OV-3 ovarian = tested on: SK-OV-3 ovarian
SF-295 CNS = tested on: SF-295 CNS
SK-MEL-5 melanoma = tested on: SK-MEL-5 melanoma
SF-268 CNS = tested on: SF-268 CNS
HCC-2998 colon = tested on: HCC-2998 colon
M14 melanoma = tested on: M14 melanoma
A498 renal = tested on: A498 renal
OVCAR-3 ovarian = tested on: OVCAR-3 ovarian
BT-549 breast = tested on: BT-549 breast
SNB-19 CNS = tested on: SNB-19 CNS
HCT-15 colon = tested on: HCT-15 colon
A549 NSCLC = tested on: A549 NSCLC
NCI/ADR-RES ovarian = tested on: NCI/ADR-RES ovarian
RPMI-8226 leukemia = tested on: RPMI-8226 leukemia
NCI-H522 lung = tested on: NCI-H522 lung
CAKI-1 renal = tested on: CAKI-1 renal
MDA-N = tested on: MDA-N
NCI-H23 lung = tested on: NCI-H23 lung
LOX IMVI melanoma = tested on: LOX IMVI melanoma
UACC-62 melanoma = tested on: UACC-62 melanoma
U251 CNS = tested on: U251 CNS
OVCAR-5 ovarian = tested on: OVCAR-5 ovarian
MCF7 breast = tested on: MCF7 breast
HT29 colon = tested on: HT29 colon
UO-31 renal = tested on: UO-31 renal
HL-60(TB) leukemia = tested on: HL-60(TB) leukemia
PC-3 prostate = tested on: PC-3 prostate
DU-145 prostate = tested on: DU-145 prostate
CCRF-CEM leukemia = tested on: CCRF-CEM leukemia
SK-MEL-28 melanoma = tested on: SK-MEL-28 melanoma
OVCAR-4 ovarian = tested on: OVCAR-4 ovarian
MALME-3M melanoma = tested on: MALME-3M melanoma
EKVX NSCLC = tested on: EKVX NSCLC
OVCAR-8 ovarian = tested on: OVCAR-8 ovarian
SW-620 colon = tested on: SW-620 colon
TK-10 renal = tested on: TK-10 renal
SN12C renal = tested on: SN12C renal
RXF 393 renal = tested on: RXF 393 renal
NCI-H226 lung = tested on: NCI-H226 lung
HOP-92 NSCLC = tested on: HOP-92 NSCLC
MDA-MB-231 breast = tested on: MDA-MB-231 breast
SNB-75 CNS = tested on: SNB-75 CNS

Q: How did the TGI (786-0 renal) turn out when `COC(=O)[C@](NC(=O)OCc1ccccc1)([C@@H](C)Sc1ccc(C)cc1)C(F)(F)F` was run?
A: > 100 µM

Q: What about the TGI (HOP-62 NSCLC) of the same compound?
A: > 100 µM

Q: What about the TGI (MOLT-4 leukemia) of the same compound?
A: > 100 µM

Q: What about the TGI (UACC-257 melanoma) of the same compound?
A: > 100 µM

Q: And the TGI (K-562 leukemia)?
A: > 100 µM

Q: What about the TGI (ACHN renal) of the same compound?
A: > 100 µM

Q: And the TGI (COLO 205 colon)?
A: 38.4 µM

Q: What about the TGI (HCT-116 colon) of the same compound?
A: > 100 µM

Q: What about the TGI (IGROV1 ovarian) of the same compound?
A: > 100 µM

Q: What about the TGI (SK-MEL-2 melanoma) of the same compound?
A: > 100 µM

Q: And the TGI (SR leukemia)?
A: > 100 µM

Q: What about the TGI (NCI-H460 lung) of the same compound?
A: > 100 µM

Q: And the TGI (SF-539 CNS)?
A: > 100 µM

Q: What about the TGI (MDA-MB-435) of the same compound?
A: > 100 µM

Q: And the TGI (HS 578T breast)?
A: > 100 µM

Q: What about the TGI (KM12 colon) of the same compound?
A: > 100 µM

Q: What about the TGI (SK-OV-3 ovarian) of the same compound?
A: > 100 µM

Q: What about the TGI (SF-295 CNS) of the same compound?
A: > 100 µM

Q: What about the TGI (SK-MEL-5 melanoma) of the same compound?
A: 38.2 µM

Q: And the TGI (SF-268 CNS)?
A: > 100 µM

Q: What about the TGI (HCC-2998 colon) of the same compound?
A: > 100 µM

Q: What about the TGI (M14 melanoma) of the same compound?
A: > 100 µM

Q: And the TGI (A498 renal)?
A: > 100 µM

Q: What about the TGI (OVCAR-3 ovarian) of the same compound?
A: > 100 µM

Q: And the TGI (BT-549 breast)?
A: > 100 µM

Q: What about the TGI (SNB-19 CNS) of the same compound?
A: > 100 µM

Q: And the TGI (HCT-15 colon)?
A: > 100 µM

Q: What about the TGI (A549 NSCLC) of the same compound?
A: > 100 µM

Q: What about the TGI (NCI/ADR-RES ovarian) of the same compound?
A: > 100 µM

Q: What about the TGI (RPMI-8226 leukemia) of the same compound?
A: > 100 µM

Q: And the TGI (NCI-H522 lung)?
A: > 100 µM

Q: And the TGI (CAKI-1 renal)?
A: > 100 µM

Q: And the TGI (MDA-N)?
A: > 100 µM

Q: What about the TGI (NCI-H23 lung) of the same compound?
A: 58.5 µM

Q: And the TGI (LOX IMVI melanoma)?
A: > 100 µM

Q: And the TGI (UACC-62 melanoma)?
A: > 100 µM

Q: And the TGI (U251 CNS)?
A: > 100 µM

Q: And the TGI (OVCAR-5 ovarian)?
A: > 100 µM

Q: What about the TGI (MCF7 breast) of the same compound?
A: > 100 µM

Q: And the TGI (HT29 colon)?
A: > 100 µM

Q: What about the TGI (UO-31 renal) of the same compound?
A: > 100 µM

Q: And the TGI (HL-60(TB) leukemia)?
A: 78.3 µM

Q: What about the TGI (PC-3 prostate) of the same compound?
A: > 100 µM

Q: And the TGI (DU-145 prostate)?
A: > 100 µM

Q: What about the TGI (CCRF-CEM leukemia) of the same compound?
A: 50.7 µM

Q: And the TGI (SK-MEL-28 melanoma)?
A: > 100 µM

Q: What about the TGI (OVCAR-4 ovarian) of the same compound?
A: > 100 µM

Q: And the TGI (MALME-3M melanoma)?
A: > 100 µM

Q: And the TGI (EKVX NSCLC)?
A: > 100 µM

Q: What about the TGI (OVCAR-8 ovarian) of the same compound?
A: 60 µM

Q: What about the TGI (SW-620 colon) of the same compound?
A: > 100 µM

Q: For `CN(CC(=O)O)c1ncc2c(n1)-c1ccccc1OC2c1ccccc1` (centres undefined), which TGI (HOP-62 NSCLC) is on record?
A: > 100 µM

Q: And the TGI (MOLT-4 leukemia)?
A: > 100 µM

Q: What about the TGI (UACC-257 melanoma) of the same compound?
A: > 100 µM

Q: And the TGI (K-562 leukemia)?
A: > 100 µM

Q: And the TGI (ACHN renal)?
A: > 100 µM

Q: What about the TGI (COLO 205 colon) of the same compound?
A: > 100 µM

Q: What about the TGI (IGROV1 ovarian) of the same compound?
A: > 100 µM

Q: What about the TGI (SK-MEL-2 melanoma) of the same compound?
A: > 100 µM

Q: And the TGI (SR leukemia)?
A: > 100 µM

Q: And the TGI (NCI-H460 lung)?
A: > 100 µM

Q: What about the TGI (SF-539 CNS) of the same compound?
A: > 100 µM

Q: And the TGI (MDA-MB-435)?
A: > 100 µM

Q: And the TGI (HS 578T breast)?
A: > 100 µM

Q: And the TGI (KM12 colon)?
A: > 100 µM

Q: And the TGI (TK-10 renal)?
A: > 100 µM

Q: And the TGI (SK-OV-3 ovarian)?
A: > 100 µM

Q: And the TGI (SF-295 CNS)?
A: > 100 µM

Q: What about the TGI (SN12C renal) of the same compound?
A: > 100 µM

Q: And the TGI (SK-MEL-5 melanoma)?
A: > 100 µM

Q: What about the TGI (SF-268 CNS) of the same compound?
A: > 100 µM

Q: And the TGI (M14 melanoma)?
A: > 100 µM

Q: What about the TGI (OVCAR-3 ovarian) of the same compound?
A: > 100 µM

Q: And the TGI (SNB-19 CNS)?
A: > 100 µM

Q: What about the TGI (HCT-15 colon) of the same compound?
A: > 100 µM

Q: What about the TGI (A549 NSCLC) of the same compound?
A: > 100 µM

Q: And the TGI (RXF 393 renal)?
A: > 100 µM

Q: What about the TGI (NCI/ADR-RES ovarian) of the same compound?
A: > 100 µM

Q: And the TGI (RPMI-8226 leukemia)?
A: > 100 µM

Q: And the TGI (NCI-H226 lung)?
A: > 100 µM

Q: And the TGI (NCI-H522 lung)?
A: > 100 µM

Q: And the TGI (HOP-92 NSCLC)?
A: > 100 µM

Q: And the TGI (CAKI-1 renal)?
A: > 100 µM

Q: And the TGI (MDA-N)?
A: > 100 µM

Q: What about the TGI (NCI-H23 lung) of the same compound?
A: > 100 µM

Q: What about the TGI (LOX IMVI melanoma) of the same compound?
A: > 100 µM

Q: And the TGI (UACC-62 melanoma)?
A: > 100 µM

Q: And the TGI (U251 CNS)?
A: > 100 µM

Q: What about the TGI (OVCAR-5 ovarian) of the same compound?
A: > 100 µM

Q: And the TGI (MDA-MB-231 breast)?
A: > 100 µM

Q: What about the TGI (MCF7 breast) of the same compound?
A: > 100 µM

Q: What about the TGI (HT29 colon) of the same compound?
A: > 100 µM

Q: What about the TGI (UO-31 renal) of the same compound?
A: > 100 µM

Q: What about the TGI (HL-60(TB) leukemia) of the same compound?
A: > 100 µM

Q: What about the TGI (PC-3 prostate) of the same compound?
A: > 100 µM

Q: What about the TGI (DU-145 prostate) of the same compound?
A: > 100 µM

Q: And the TGI (CCRF-CEM leukemia)?
A: > 100 µM

Q: What about the TGI (SK-MEL-28 melanoma) of the same compound?
A: > 100 µM

Q: And the TGI (SNB-75 CNS)?
A: > 100 µM

Q: What about the TGI (OVCAR-4 ovarian) of the same compound?
A: > 100 µM

Q: And the TGI (MALME-3M melanoma)?
A: > 100 µM

Q: And the TGI (EKVX NSCLC)?
A: > 100 µM

Q: And the TGI (OVCAR-8 ovarian)?
A: > 100 µM

Q: What about the TGI (SW-620 colon) of the same compound?
A: > 100 µM
